# Measured values published in patent US8568755B2 (priority 2007, dated 2013).
# Several values for one entry are separate records, joined by “and”; a condition that tells them apart may be missing. Equal values may be shown once. Read-outs that look alike come from different tables or passages of the source.
# What was measured:
# Type in all cases: in vivo
# [1] = test system: Sphaerotheca fuliginea
# [2] = test system: Septoria nodorum; test: Test on preventive effect against wheat glum bloth (Test Example 3)
# Method: Wheat (cultivar: Norin-61-go) was cultivated in a plastic pot having a diameter of 7.5 cm, and when it reached 1.5-leaf stage, a mixed chemical solution having the respective sample compounds adjusted to prescribed concentrations, was applied by a spray gun in an amount of 10 ml per seedling. After the chemical solution dried, a suspension of conidia of Septoria nodorum was sprayed and inoculated and maintained at 20° C. for 7 days (for the first 3 days maintained under high humidity condition). Thereafter, the area of lesions was investigated, and the diseased area ratio to non-treated section was obtained by the following equation. Diseased area ratio to non-treated section=(a/b)×100
# a: Average area of lesions in treated section
# b: Average area of lesions in non-treated section
# Further, the theoretical value was calculated by a Colby's formula and shown in brackets ( ) in Tables 3-1 to 3-14. Since the diseased area ratio to non-treated section (experimental value) is lower than the theoretical value, the composition of the present invention can be said to have a synergistic effect.
# [3] = test system: Botrytis cinerea; test: Test on preventive effect against kidney bean gray mold (Test Example 4)
# Method: Kidney bean (cultivar: Taisyou Kintoki) was cultivated in a plastic pot having a diameter of 12.0 cm, and when it reached 2.5-leaf stage, a mixed chemical solution having the respective test compounds adjusted to prescribed concentrations, was applied by a spray gun in an amount of 10 ml per seedling. After the chemical solution dried, the leaf was cut out, and a filter paper disk (8 mm in diameter) was placed on the leaf. Then, 120 μl of a suspension of spores of Botrytis cinerea (1.0×10^6 spores/ml) was dropped thereon and inoculated. The system was maintained under a humidity condition at 20° C. for three days, whereupon the area of lesions was investigated, and the diseased area ratio to non-treated section was obtained in the same manner as in Test Example 3. Further, the theoretical value was calculated by a Colby's formula and shown in brackets ( ) in Tables 4-1 to 4-19. Since the diseased area ratio to non-treated section (experimental value) is lower than the theoretical value, the composition of the present invention can be said to have a synergistic effect.
# [4] = test system: Erysiphe graminis; test: Test on preventive effect against wheat powdery mildew (Test Example 1)
smiles,measurement,setting,value
"Cc1ccsc1C(=O)NC(C)(C)C(=O)c1ccc(OC(C)C)cc1 [Compound No. 8, N-[[4′-(2-propyloxy)-1,1-dimethyl]phenacyl]-3-methyl-2-thiophenecarboxamide]",diseased area ratio to non-treated section (experimental value),[1]; single use at 1 ppm,35.0
same,diseased area ratio to non-treated section (experimental value),[1]; single use at 2 ppm,10.0
same,diseased area ratio to non-treated section (experimental value),[2]; single use at 12.5 ppm,35.0
same,diseased area ratio to non-treated section (experimental value),[2]; single use at 50 ppm,20.0
"CC1CCN(c2c(-c3c(F)cc(F)cc3F)c(Cl)nc3ncnn23)CC1 [Compound α, 5-chloro-7-(4-methylpiperidin-1-yl)-6-(2,4,6-trifluorophenyl)-[1,2,4]triazolo[1,5-a]pyrimidine, reference compound]",diseased area ratio to non-treated section (experimental value),[3]; single use at 4 ppm,43.0
same,diseased area ratio to non-treated section (experimental value),[3]; single use at 8 ppm,15.0
"COc1ccccc1N1CCSC1=C(C#N)Sc1cc(C(F)(F)F)ccc1F [Compound γ, 2-(2-fluoro-5-(trifluoromethyl)phenylthio)-2-(3-(2-methoxyphenyl)thiazolidin-2-yliden)acetonitrile, reference compound]",diseased area ratio to non-treated section (experimental value),[3]; single use at 1 ppm,88.6
same,diseased area ratio to non-treated section (experimental value),[3]; single use at 10 ppm,88.6
Cc1cc(OC(C)C)ccc1C(=O)C(C)(C)NC(=O)c1sccc1C [No. 5],diseased area ratio to non-treated section,[4]; Compound No.x alone 16 ppm,25.0
same,diseased area ratio to non-treated section,[4]; Compound No.x alone 31 ppm,17.5 and 12.5
same,diseased area ratio to non-treated section,[4]; Compound No.x alone 63 ppm,10.0
same,diseased area ratio to non-treated section,[4]; Compound No.x alone 125 ppm,2.5
same,diseased area ratio to non-treated section,[1]; Compound No.x alone 8 ppm,2.5
Cc1ccsc1C(=O)NC(C)(C)C(=O)c1ccc(OC(C)C)cc1 [No. 8],diseased area ratio to non-treated section,[4]; Compound No.x alone 63 ppm,60.0
same,diseased area ratio to non-treated section,[4]; Compound No.x alone 125 ppm,55.0 and 30.0
same,diseased area ratio to non-treated section,[1]; Compound No.x alone 1 ppm,81.3
same,diseased area ratio to non-treated section,[1]; Compound No.x alone 2 ppm,45.0 and 75.0
CCCC(C)Oc1ccc(C(=O)C(C)(C)NC(=O)c2ncccc2C(F)(F)F)cc1 (stereo not drawn) [No. 11],diseased area ratio to non-treated section,[4]; Compound No.x alone 63 ppm,45.0 and 60.0
same,diseased area ratio to non-treated section,[4]; Compound No.x alone 125 ppm,35.0
same,diseased area ratio to non-treated section,[4]; Compound No.x alone 250 ppm,22.5 and 12.5
same,diseased area ratio to non-treated section,[1]; Compound No.x alone 8 ppm,4.0
O=C(Cc1ccccc1)N/C(=N\OCC1CC1)c1c(C(F)(F)F)ccc(F)c1F [cyflufenamid],diseased area ratio to non-treated section (experimental value),[3]; single use at 10 ppm,87.3
same,diseased area ratio to non-treated section (experimental value),[3]; single use at 100 ppm,82.3
CCCCC(C#N)(Cn1cncn1)c1ccc(Cl)cc1 (stereo not drawn) [myclobutanil],diseased area ratio to non-treated section (experimental value),[2]; single use at 5 ppm,60.0
same,diseased area ratio to non-treated section (experimental value),[2]; single use at 20 ppm,35.0
CCCN(CCOc1c(Cl)cc(Cl)cc1Cl)C(=O)n1ccnc1 [prochloraz],diseased area ratio to non-treated section (experimental value),[2]; single use at 5 ppm,40.0
same,diseased area ratio to non-treated section (experimental value),[2]; single use at 20 ppm,15.0
CCCOc1nc2ccc(I)cc2c(=O)n1CCC [proquinazid],diseased area ratio to non-treated section (experimental value),[3]; single use at 10 ppm,96.2
same,diseased area ratio to non-treated section (experimental value),[3]; single use at 100 ppm,92.4
OC(Cc1ccccc1Cl)(Cn1nc[nH]c1=S)C1(Cl)CC1 (stereo not drawn) [prothioconazole],diseased area ratio to non-treated section (experimental value),[2]; single use at 10 ppm,30.0
COC(=O)NCc1cc(/C(C)=N/OCc2cccc(C)n2)ccc1Cl [pyribencarb],diseased area ratio to non-treated section (experimental value),[3]; single use at 4 ppm,70.0
same,diseased area ratio to non-treated section (experimental value),[3]; single use at 8 ppm,65.0
Fc1ccc(Oc2ccnc3cc(Cl)cc(Cl)c23)cc1 [quinoxyfen],diseased area ratio to non-treated section,[4]; fungicide (b) alone 0.06 ppm,80.0
same,diseased area ratio to non-treated section,[4]; fungicide (b) alone 0.125 ppm,77.5
CCCN(CC)CC1COC2(CCC(C(C)(C)C)CC2)O1 (stereo not drawn) [spiroxamine],diseased area ratio to non-treated section,[4]; fungicide (b) alone 12.5 ppm,97.0
same,diseased area ratio to non-treated section,[4]; fungicide (b) alone 25 ppm,15.2
same,diseased area ratio to non-treated section,[4]; fungicide (b) alone 50 ppm,6.1
S1SSSSSSS1 [sulfur],diseased area ratio to non-treated section,[4]; fungicide (b) alone 50 ppm,97.5
same,diseased area ratio to non-treated section,[4]; fungicide (b) alone 500 ppm,40.0
CC(C)(C)C(O)(CCc1ccc(Cl)cc1)Cn1cncn1 (stereo not drawn) [tebuconazole],diseased area ratio to non-treated section,[4]; fungicide (b) alone 0.5 ppm,10.0
same,diseased area ratio to non-treated section,[4]; fungicide (b) alone 1 ppm,5.0
FC(F)C(F)(F)OCC(Cn1cncn1)c1ccc(Cl)cc1Cl (stereo not drawn) [tetraconazole],diseased area ratio to non-treated section,[4]; fungicide (b) alone 0.125 ppm,60.0
same,diseased area ratio to non-treated section,[4]; fungicide (b) alone 0.5 ppm,52.5
Cc1cccc2sc3nncn3c12 [tricyclazole],diseased area ratio to non-treated section,[4]; fungicide (b) alone 50 ppm,22.5
same,diseased area ratio to non-treated section,[4]; fungicide (b) alone 500 ppm,50.0
